Laboratory results reported in patent US7153883B2, “Carboxylic acids and carboxylic acid isosteres of N-heterocyclic compounds” (GPI NIL Holdings Inc., priority 1998, dated 2006).

Tests used:
[1] = system: retinal ganglion cell axons; assay: Protection of retinal ganglion cell axons 14 days after optic nerve transection (RT97); format: in vivo, Sprague Dawley rats; details: ± SEM
From the text: Efficacy of representative compounds from different immunophilin ligand series in protecting retinal ganglion cell axons from degeneration following optic nerve transection is set forth in Table VI.

[2] = Clearance; format: in vitro ADME
[3] = system: dopaminergic neurons; assay: MPTP model of Parkinson's Disease in mice (TH immunostaining); format: in vivo, CD1 white mice; details: Mus musculus, Neuron, po; 10 mg/kg p.o.; MPTP-lesioned mice; read-out: Post-MPTP % TH RECOVERY
Experimental: MPTP lesioning of dopaminergic neurons in mice was used as an animal model of Parkinson's Disease. Four week old male CD1 white mice were dosed i.p. with 30 mg/kg of MPTP for 5 days. […] At 18 days following MPTP treatment, the animals were sacrificed and the striata were dissected and homogenized. Immunostaining was performed on saggital and coronal brain sections using anti-tyrosine hydroxylase Ig to quantitate survival and recovery of dopaminergic neurons. In animals treated with MPTP and vehicle, a substantial loss of functional dopaminergic terminals was observed as compared to non-lesioned animals. In another protocol, test compounds were administered only subsequent to MPTP-induced lesioning. Thus, after animals were treated with MPTP for 5 days, an additional 3 days passed before beginning oral drug treatment on day 8. […] On day 18, the animals were sacrificed and analyzed as described above.
Table V presents the percent recovery of dopaminergic neurons in the first (concurrent dosing) paradigm in animals receiving carboxylic acid or carboxylic acid isostere compounds of the present invention.
Percent striatal innervation density was quantitated in brain sections with an anti-tyrosine hydroxylase immunoglobulin, which is indicative of functional dopaminergic neurons. The striatal innervation density of 23% for animals pretreated with only a vehicle and administered a vehicle orally during treatment, is indicative of normal non-lesioned striatal tissue. Striatal innervation density is reduced to 5% for animals pretreated with MPTP and administered a vehicle orally during treatment, and is indicative of MPTP-induced lesioning.

[4] = system: hair growth; assay: In vivo hair generation test with C57 Black 6 mice; details: topical, 1 μmole per milliliter three times per week, evaluated after 14 days
Experimental: Care was taken not to nick or cause abrasion to the underlaying dermal layers. The animals were in anagen growth phase, as indicated by the pinkish color of the skin. Referring now to FIG. 2, four animals per group were treated by topical administration with 20% propylene glycol vehicle (FIG. 2), or neuroimmunophilin FKBP ligands dissolved in the vehicle. The animals were treated with vehicle or neuroimmunophilin ligands every 48 hours (3 applications total over the course of 5 days) and the hair growth was allowed to proceed for 6 weeks. Hair growth was quantitated by the percent of shaved area covered by new hair growth during this time period.
Care was taken not to nick or cause abrasion to the underlying dermal layers. Compounds at a concentration of 1 μmole per milliliter were carefully applied to the shaved area of the mice (5 mice per group) three times per week. Hair growth was evaluated 14 days after initiation of drug treatment. The relative scale for assessing hair growth is as follows: • 0=no growth; • 1=beginning of growth in small tufts; • 2=hair growth covering over <25% of shaved area; • 3=hair growth covering over >25% of shaved area, but less than 50% of shaved area; • 4=hair growth covering over >50% of shaved area, but less than 75% of shaved area; • 5=complete hair growth of shaved area.

[5] = target: Rotamase (Homo sapiens, UniProt P62942); assay: Rotamase inhibition; format: biochemical; details: read-out: K1 Rotamase
Chain of Rotamase (P62942 2-108 limits assumed): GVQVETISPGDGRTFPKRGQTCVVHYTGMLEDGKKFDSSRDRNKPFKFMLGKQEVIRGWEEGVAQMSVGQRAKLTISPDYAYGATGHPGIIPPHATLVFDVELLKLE

[6] = system: retina; assay: Streptozotocin induced diabetes: retinal neovascularization and neuron loss; format: in vivo; details: 28 day treatment beginning 8 weeks after onset of diabetes
[7] = system: retinal ganglion cells; assay: Retinal ischemia: ganglion cell, optic nerve axon and myelin degeneration; format: in vivo, rats
From the text: Retinal ganglion cells were retrogradely labeled in adult rats by bilateral injection of fluorogold in their lateral geniculate nuclei. Labeled ganglion cells in the normal rat retina appear as white profiles against the dark background (FIG. 4A). Complete retinal ischemia was produced by infusing normal saline solution into the retinal vitreous cavity of each eye until the intraocular pressure exceeded arterial blood pressure. 28 days after the ischemic episode extensive degeneration of retinal ganglion cell was evidenced by massive reduction in the density of fluorogold labeled cells (FIG. 4B).

[8] = system: retinal ganglion cells and optic nerve axons; assay: Optic nerve transection: retinal ganglion cell survival, optic nerve axons and myelin 90 days after transection; format: in vivo, Sprague Dawley rats
From the text: Transection of the mammalian optic nerve results in a brief period of abortive regeneration, but the majority of axotomized neurons die and the axons from many persisting ganglion cells die back beyond the optic nerve head. […]
All eyes and optic nerves stumps were removed.

[9] = system: spatial memory; assay: Morris watermaze spatial learning and memory in aged rodents; format: in vivo, C57BL/6N-Nia mice; details: 10 mg/kg daily, retention testing after 3 weeks of dosing; aged impaired mice
From the text: The Morris watermaze is widely used for assessing spatial memory formation and retention in experimental animals. The test depends on the animal's ability to utilize spatial visual information in order to locate a submerged escape platform in a water tank. It is important that the tank itself be as devoid of specific visual features as possible—thus, it is always circular in shape, the sides are kept smooth and in uniform dull colors, and the water is rendered opaque with nontoxic watercolour pigment or powdered milk. This is to ensure that the animal navigates only by the use of more distant visual cues, or by the use of intra-maze cues specifically provided by the experimenter. The animals' path, speed, and swim time are tracked with a ceiling camera for later computerized analysis. Over the course of several successive trials, spatial learning can therefore be defined as a drop of distance swum, or time elapsed, from placement in the tank until escape onto the invisible platform. The procedure involved using three-month old (young) and 18–19 month old male C57BL/6N-Nia (aged) mice which habituated to the well known and conventional Morris watermaze during a 4 trials/day, 3–4 day visible platform training phase. […] Swim Distances (cm) were analyzed in a 7×5 ANOVA including Groups and Blocks (1–5) as factors in the analysis, treating Blocks as a repeated measure.

[10] = 28 days after 1 hour retinal ischemic episode
[11] = 10 mg/kg/day s.c. for 28 days, 90 days after transection
[12] = treatment first 14 days, 90 days after transection
[13] = treatment first 28 days, 90 days after transection

For `O=C(SCCCc1ccccc1)[C@@H]1CCCN1S(=O)(=O)Cc1ccccc1` [C], the “RT97 + RGC axon density 14 days after ON transection (% ON axons rescued)” value [1] was 60.4%±3.1%SEM and the Clearance [2] was 31.1 µL/min.
`CCC(C)(C)C(=O)C(=O)N1CCC[C@H]1CO` [Compound 26, (2S)-1-(1,2-dioxo-3,3-dimethylpentyl)-2-hydroxymethyl pyrrolidine] gave a percent TH recovery after MPTP at 10 mg/kg [3] of 23.2%.
In the case of `CCC(C)(C)C(=O)C(=O)N1CCC[C@H]1CC#N` [Compound 28, 2-[1-(3,3-Dimethyl-2-oxopentanoyl)pyrrolidin-2-yl]ethanenitrile], the percent TH recovery after MPTP at 10 mg/kg [3] is reported as 15.7% and the melting point is reported as 91 to 93 °C.
`CCC(C)(C)C(=O)C(=O)N1CCC[C@H]1C#N` [Compound 29, (2S)-1-(1,2-dioxo-3,3-dimethylpentyl)-2-pyrrolidinecarbonitrile] gave a percent TH recovery after MPTP at 10 mg/kg [3] of 34.1%.
For `CCC(C)(C)C(=O)C(=O)N1CCC[C@H]1c1nnn[nH]1` [Compound 30, (2S)-1-(1,2-dioxo-3,3-dimethylpentyl)-2-pyrrolidinetetrazole], the percent TH recovery after MPTP at 10 mg/kg [3] was 19.6%.
With `CCC(C)(C)C(=O)C(=O)N1CCCC[C@H]1C(N)=O` [Compound 35, (2S)-1-(1,2-dioxo-3,3-dimethylpentyl)-2-aminocarbonyl piperidine] the percent TH recovery after MPTP at 10 mg/kg [3] was 46.5% and the “hair growth on shaved area” value [4] was “dramatic hair growth”.
In the case of `CCC(C)(C)C(=O)C(=O)N1CCC[C@H]1C(=O)O` [Compound 137, (2S)-1-(1,2-dioxo-3,3-dimethylpentyl)-2-pyrrolidinecarboxylic acid], the percent TH recovery after MPTP at 10 mg/kg [3] is reported as 26.7% and the “hair growth on shaved area” value [4] is reported as “dramatic hair growth”.
In the case of `CCC(C)(C)C(=O)C(=O)N1CCC[C@H]1C(=O)NNC(=O)c1cccs1` [Compound 140, [1-(3,3-Dimethyl-2-oxopentanoyl)pyrrolidin-2-yl]-N-(2-thienylcarbonylamino)-formamide], the percent TH recovery after MPTP at 10 mg/kg [3] is reported as 10.4% and the melting point is reported as 72 to 74 °C.
With `CCC(C)(C)C(=O)C(=O)N1CCC[C@H]1COc1ccc([N+](=O)[O-])cc1` [Compound 141, 3,3-Dimethyl-1-{2-[(4-nitrophenoxy)methyl]pyrrolidinyl}pentane-1,2-dione] the percent TH recovery after MPTP at 10 mg/kg [3] was 26.3%.
`CCC(C)(C)C(=O)C(=O)N1CCC[C@H]1C(=O)NNS(=O)(=O)c1ccc(C)cc1` [Compound 146, [1-(3,3-Dimethyl-2-oxopentanoyl)pyrrolidin-2-yl]-N-{[(4-methylphenyl)sulfonyl]-amino}formamide] gave a percent TH recovery after MPTP at 10 mg/kg [3] of 40.6% and a melting point of 59 to 61 °C.
For `CCC(C)(C)C(=O)C(=O)N1CCC[C@H]1C(=O)NNS(=O)(=O)c1ccc(F)cc1` [Compound 147], the melting point was 57 to 60 °C.
Molecule `CCC(C)(C)C(=O)C(=O)N1CCC[C@H]1c1nnc(S)[nH]1` [Compound 148, (2S)-3,3-Dimethyl-1-[2-(5-sulfanyl(4H-1,2,4-triazol-3-yl))pyrrolidinyl]-pentane-1,2-dione] has a percent TH recovery after MPTP at 10 mg/kg [3] of 21.4%.
For `CCC(C)(C)C(=O)C(=O)N1CCCCC1C(=O)OC(CCc1ccccc1)CCc1ccccc1` (centres unmarked) [E], the Clearance [2] was 41.8 µL/min.
`CCC(C)(C)C(=O)C(=O)N1CCSC1C(=O)OCCCc1cccnc1` (centres unmarked) [F] gave a Ki [5] of 272 nM.
With `CCC(C)(C)C(=O)C(=O)N1CCC[C@H]1C(=O)OCCCc1cccnc1` [GPI 1046] the “neovascularization in the PR, ONL, OPL and INL” value [6] was “reduced neovascularization”, the “neuronal loss in the ONL” value [6] was “did not appear to protect against neuronal loss in the ONL” and the “loss of neurons in the INL and GCL” value ([6]; vs streptozotocin/vehicle) was “appeared to decrease the loss of neurons”. The “protection of vulnerable ganglion cell population” value ([7]; 10 mg/kg s.c. 1 hour prior to ischemia and 10 mg/kg/day next four days, 28 days after ischemia) was “noticeable protection of a large proportion”, the “density of degenerating myelin figures” value [7, 10] was “dramatically decreased” and the “optic nerve axon degeneration” value [7, 10] was “protected the majority of optic nerve axons from degeneration”. The “RT97 + RGC axon density 14 days after ON transection (% ON axons rescued)” value [1] was 60.5%±3.9%SEM, the “axons of protected neurons in the proximal stump” value [8, 11] was “preserved the axons of virtually all protected neurons” and the “ganglion cell population spared” value [8, 11] was 25%. The “density of large, medium and small caliber optic nerve axons” value ([8]; 28 day treatment) was “significant increase”, the “density of myelin, distal stump” value ([8]; treatment first 14 days) was “slightly increase the density of myelin” and the “shrinkage of the distal stump” value ([8]; treatment first 14 days) was “did not protect against shrinkage of the distal stump”. For the same molecule, the “protection of optic nerve axons, proximal stump” value [8, 12] was 5.3%, the “recovery in myelin density, proximal stump” value [8, 12] was 1.6% and the “cross sectional shrinkage of the distal stump” value ([8]; treatment first 28 days) was “prevented cross sectional shrinkage”. The “protection of the vulnerable ganglion cell population” value ([8]; treatment first 28 days after transection, 90 days after transection) was 12.6%, the “myelin levels in distal stump, % of normal levels” value [8, 13] was 99% and the “recovery of myelin density, proximal stump” value [8, 13] was 70%. For the same molecule, the “density of retinal ganglion cells that survived” value ([8]; treatment for 14 days, 90 days after transection) was “small but not significant increase”, the “spared retinal ganglion cells with protected optic nerve axons” value ([8]; treatment for 28 days, 90 days after transection) was 81.4% and the Clearance [2] was 63.8 µL/min. The “spatial memory performance (retention testing, swim distance)” value [9] was “significantly enhanced spatial memory performance”.
Work on `O=C(OCCCc1cccnc1)[C@@H]1CCCN1C(=S)NC1CCCCC1` [I] yielded a Clearance [2] of 8.0 µL/min.
Work on `CCC(C)(C)C(=O)C(=O)N1CCC[C@H]1C(=O)CCCCc1cccnc1` [J] yielded a Clearance [2] of 1.5 µL/min.
Molecule `CCC(C)(C)C(=O)C(=O)N1CCCC[C@H]1C(=O)SCCC(c1ccccc1)c1ccccc1` [K] has a Clearance [2] of 4.5 µL/min.
For `CCC(C)(C)C(=O)C(=O)N1CCC[C@H]1C(=O)O` [L], the “RT97 + RGC axon density 14 days after ON transection (% ON axons rescued)” value [1] was 7.8%±3.0%SEM and the Clearance [2] was 5.2 µL/min.
For `CCC(C)(C)C(=O)C(=O)N1CCC[C@H]1C(=O)SCCC(c1ccccc1)c1ccccc1` [M], the “RT97 + RGC axon density 14 days after ON transection (% ON axons rescued)” value [1] was −6.3%±3.9%SEM and the Clearance [2] was 12.5 µL/min.
Work on `CN(C)C(=O)N1CCC[C@H]1C(=O)SCCCc1ccccc1` [N] yielded a Clearance [2] of 21.9 µL/min.
